Source: BindingDB's records for patent US12509446 (Rottapharm Biotech, 2025)
pIC50: −log10 of the molar value.

Tests used:
[1] = biological target: Tyrosine-protein kinase Fyn (Homo sapiens, UniProt P06241); test: In Vitro Kinase Activity Assay
Protocol: Table 11: The Fyn kinase inhibitory activity of representative examples of compounds of Formula (1) was evaluated by Z′-LYTE™ Kinase Assay Platform (Invitrogen). Compounds were evaluated towards active Fyn (full length active, molecular weight 87.1 kDa; Invitrogen). […] Samples representing the 0% inhibition (or total enzymatic activity) were in the presence of compound diluent (1% DMSO final in Reaction Buffer 50 mMHepes, 10 mM MgCl2, 1 mM EGTA, 0.01% Brij-35, pH 7.5). The kinase reaction was carried out in a total volume of 10 μl, for 60 minutes at 25° C. The 0% Phosphorylation (i.e. no ATP) and 100% Phosphorylation Assay Controls, included in each plate, allowed to calculate the percent phosphorylation achieved in the specific reaction well. Results are expressed as percentage of inhibition and the IC50 values were calculated by non-linear curve fitting using GraphPad™ Prism software (version 6 for Windows).

[2] = biological target: Vascular endothelial growth factor receptor 2 (Homo sapiens, UniProt P35968); test: In Vitro Kinase Activity Assay
Protocol: Table 12: The VEGFR2 kinase inhibitory activity of representative examples of compounds of Formula (I) assays was evaluated in Eurofins Cerep (France). The concentration range of the inhibitors under investigation was from 10−8 M up to 10−5 M final concentration. Some compounds were re-tested in a concentration-range starting from 10−9 M. The results are expressed as a percent of control activity (in the absence of test compound) and the IC50 values were determined by non-linear regression analysis of the inhibition/concentration curves generated with mean replicate values.

Sequence of Vascular endothelial growth factor receptor 2 (P35968 whole entry): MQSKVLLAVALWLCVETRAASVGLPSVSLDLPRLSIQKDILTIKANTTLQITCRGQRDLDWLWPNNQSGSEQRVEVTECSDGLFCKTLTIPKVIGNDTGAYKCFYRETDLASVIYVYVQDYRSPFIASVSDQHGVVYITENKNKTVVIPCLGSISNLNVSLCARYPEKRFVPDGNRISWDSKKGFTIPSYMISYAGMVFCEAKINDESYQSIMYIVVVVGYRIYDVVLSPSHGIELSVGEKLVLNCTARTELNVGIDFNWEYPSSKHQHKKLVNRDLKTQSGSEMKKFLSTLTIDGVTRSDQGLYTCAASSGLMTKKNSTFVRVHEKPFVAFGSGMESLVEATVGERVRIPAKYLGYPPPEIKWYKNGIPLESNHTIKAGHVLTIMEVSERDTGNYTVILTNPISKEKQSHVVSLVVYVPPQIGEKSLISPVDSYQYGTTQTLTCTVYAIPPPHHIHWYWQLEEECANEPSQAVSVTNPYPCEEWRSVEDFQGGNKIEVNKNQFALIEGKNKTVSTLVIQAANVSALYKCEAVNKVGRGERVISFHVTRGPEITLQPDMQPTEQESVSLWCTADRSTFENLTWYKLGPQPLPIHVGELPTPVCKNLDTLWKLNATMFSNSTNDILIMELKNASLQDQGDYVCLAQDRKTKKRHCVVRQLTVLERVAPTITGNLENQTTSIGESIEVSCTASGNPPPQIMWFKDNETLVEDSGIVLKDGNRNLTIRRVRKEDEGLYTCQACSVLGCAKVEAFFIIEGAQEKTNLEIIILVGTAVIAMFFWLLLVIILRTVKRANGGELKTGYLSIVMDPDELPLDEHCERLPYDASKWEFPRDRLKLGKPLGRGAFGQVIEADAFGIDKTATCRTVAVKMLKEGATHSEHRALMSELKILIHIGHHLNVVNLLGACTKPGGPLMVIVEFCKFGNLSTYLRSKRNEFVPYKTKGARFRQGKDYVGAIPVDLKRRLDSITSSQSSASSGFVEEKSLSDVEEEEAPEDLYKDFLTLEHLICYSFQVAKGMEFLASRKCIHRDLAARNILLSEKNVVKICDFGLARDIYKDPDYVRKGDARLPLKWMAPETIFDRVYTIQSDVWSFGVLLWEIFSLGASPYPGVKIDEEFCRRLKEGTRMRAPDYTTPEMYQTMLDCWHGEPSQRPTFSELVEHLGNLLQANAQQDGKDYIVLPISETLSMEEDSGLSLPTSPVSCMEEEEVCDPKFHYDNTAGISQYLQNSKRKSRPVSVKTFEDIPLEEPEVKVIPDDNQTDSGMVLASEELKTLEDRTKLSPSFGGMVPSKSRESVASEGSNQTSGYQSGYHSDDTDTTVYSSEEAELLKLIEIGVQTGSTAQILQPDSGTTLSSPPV
Sequence of Tyrosine-protein kinase Fyn (P06241 whole entry): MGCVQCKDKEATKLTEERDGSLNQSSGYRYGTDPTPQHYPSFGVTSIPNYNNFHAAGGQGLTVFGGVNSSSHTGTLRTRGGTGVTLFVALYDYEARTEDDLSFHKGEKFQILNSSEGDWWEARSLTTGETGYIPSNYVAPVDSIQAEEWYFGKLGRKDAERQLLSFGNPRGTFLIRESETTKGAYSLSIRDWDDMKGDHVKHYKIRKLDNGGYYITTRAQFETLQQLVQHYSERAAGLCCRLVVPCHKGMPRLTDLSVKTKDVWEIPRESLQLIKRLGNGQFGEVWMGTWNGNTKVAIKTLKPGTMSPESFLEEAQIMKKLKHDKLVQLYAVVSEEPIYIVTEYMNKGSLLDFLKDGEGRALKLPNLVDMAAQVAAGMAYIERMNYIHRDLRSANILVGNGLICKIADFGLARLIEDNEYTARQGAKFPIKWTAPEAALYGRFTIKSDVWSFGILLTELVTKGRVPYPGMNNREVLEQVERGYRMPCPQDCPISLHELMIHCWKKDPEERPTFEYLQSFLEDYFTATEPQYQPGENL

| pIC50 [1] | pIC50 [2] | Structure (SMILES) |
| --- | --- | --- |
| 8.00 | 7.74 | Cc1nc(Nc2cc(CCc3cc(NC(=O)c4cccc(C(F)(F)F)c4)ccc3F)n[nH]2)cc(N2CC(O)C2)n1 [US12509446, Compound 31] |
| 7.44 | > 8.00 | Cc1ccc(NC(=O)c2cccc(S(C)(=O)=O)c2)cc1CCc1cc(Nc2cnccn2)[nH]n1 [US12509446, Compound 1] |
| 7.82 | > 8.00 | CCN1CCN(c2cc(Nc3cc(CCc4cc(NC(=O)c5cccc(C(F)(F)F)c5)ccc4F)n[nH]3)nc(C)n2)CC1 [US12509446, Compound 29] |
| 8.22 | > 8.00 | Cc1nc(Nc2cc(CCc3cc(NC(=O)c4cccc(C(F)(F)F)c4)ccc3F)n[nH]2)cc(N2CCN(CCO)CC2)n1 [US12509446, Compound 30] |
| 7.74 | > 8.00 | Cc1nc(Nc2cc(CCc3ccc(F)c(NC(=O)c4cccc(C(F)(F)F)c4)c3)n[nH]2)cc(N2CC(O)C2)n1 [US12509446, Compound 46] |
| 7.66 | > 8.00 | CCN1CCN(c2cc(Nc3cc(CCc4ccc(F)c(NC(=O)c5cccc(C(F)(F)F)c5)c4)n[nH]3)nc(C)n2)CC1 [US12509446, Compound 45] |
| 8.10 | > 8.00 | Cc1nc(Nc2cc(CCc3ccc(F)c(NC(=O)c4cccc(C(F)(F)F)c4)c3)n[nH]2)cc(N2CCN(CCO)CC2)n1 [US12509446, Compound 44] |
